The record followed here is ChEMBL document CHEMBL5518181, “Studies of antibacterial activity (in vitro and in vivo) and mode of action for des-acyl tridecaptins (DATs)” (Eur J Med Chem, 2024).

Values after ≈ are worked out from the molar mass of the structure shown. Active and inactive are the calls of the source. No cut-off for these calls is given here.

One data set relates to Lipopolysaccharide (LPS). In words: Binding affinity to Escherichia coli O55:B5 LPS assessed as dissociation constant by ITC analysis. The format is subcellular.
In data set [1] the test system is Escherichia coli. Kind of data set: Antibacterial activity against wild-type Escherichia coli ATCC 25922 assessed as inhibition of bacterial growth incubated for 18 hrs. The format is functional. The note with it: for MIC: read-out: MIC100.
Data set [2] is described as follows: Cytotoxicity against human HepG2 cells incubated for 40 hrs by celltiter-glo luminescent cell viability assay. The format is toxicity, cell-based. (In general: In ATP-based viability assays light output follows the ATP content of the culture.)
The nature of data set [3]: Binding affinity to gram negative bacterial lipid II assessed as dissociation constant by ITC analysis. Details: species or system Bacteria. For orientation: ITC needs no label: the signal is the heat of the interaction.
Data set [4] concerns Klebsiella pneumoniae. In words: Antibacterial activity against wild-type Klebsiella pneumoniae ATCC 13883 assessed as inhibition of bacterial growth incubated for 18 hrs. The format is functional. Particulars: for MIC: read-out: MIC100.
Data set [5] can be described thus: Hemolytic activity in human red blood cells at 400 ug/ml incubated for 45 mins by spectrophotometric analysis relative to control. The format is toxicity, cell-based, Erythrocyte. The note with it: red blood cells (erythrocytes), at 400 µg/mL, read-out: Activity.
For the next data set, the system named is Bacteria. Kind of data set: Binding affinity to gram negative bacterial lipid II at 250 uM by ITC analysis.
Data set [6] relates to Klebsiella pneumoniae. Kind of data set: Antibacterial activity against wild-type Klebsiella pneumoniae ATCC 13883 assessed as inhibition of bacterial growth incubated for 18 hrs in presence of 50% heat inactivated human serum. The format is functional. Particulars: read-out: MIC100.
Data set [7] can be described thus: Hydrophobicity of compound assessed as %MeCN at peak elution by RP-HPLC analysis. The format is physicochemical.
The subject of data set [8] is Escherichia coli. Kind of data set: Antibacterial activity against wild-type Escherichia coli ATCC 25922 assessed as inhibition of bacterial growth by measuring fold increase in MIC incubated for 18 hrs in presence of 50% heat inactivated human serum relative to control. The format is functional.
Data set [9] relates to Pseudomonas aeruginosa. In words: Antibacterial activity against wild-type Pseudomonas aeruginosa PAO1 assessed as inhibition of bacterial growth incubated for 24 hrs. The format is functional. The note with it: read-out: MIC100.
Data set [10] deals with Escherichia coli. Kind of data set: Antibacterial activity against Escherichia coli ATCC 25922 harboring tolC knock-out assessed as inhibition of bacterial growth incubated for 18 hrs. The format is functional. Particulars: read-out: MIC100.
In the next data set the test system is Acinetobacter baumannii. In words: Antibacterial activity against wild-type Acinetobacter baumannii ATCC 19606 assessed as inhibition of bacterial growth incubated for 20 hrs. The format is functional. The note with it: read-out: MIC100.
The test system of data set [11] is Escherichia coli. Kind of data set: Antibacterial activity against wild-type Escherichia coli ATCC 25922 assessed as inhibition of bacterial growth incubated for 18 hrs in presence of 50% heat inactivated human serum. The format is functional. Particulars: read-out: MIC100.
The test system of data set [12] is Escherichia coli. Kind of data set: Antibacterial activity against Escherichia coli ATCC 25922 harboring hldE knock-out assessed as inhibition of bacterial growth incubated for 18 hrs. Particulars: read-out: MIC100. The format is functional.
For data set [13], the system named is Staphylococcus aureus. Kind of data set: Antibacterial activity against […] assessed as inhibition of bacterial growth incubated for 18 hrs. The format is functional. The note with it: ATCC 29213, read-out: MIC100.
Data set [14] has as its system Klebsiella pneumoniae. In words: Antibacterial activity against Klebsiella pneumoniae ATCC 43816 assessed as inhibition of bacterial growth incubated for 18 hrs. The format is functional.
Another data set has as its system Serratia marcescens. In words: Antibacterial activity against intrinsically colistin resistant Serratia marcescens ATCC 13880 assessed as inhibition of bacterial growth incubated for 18 hrs. The format is functional.
Data set [15] has as its system Pseudomonas aeruginosa. Kind of data set: Antibacterial activity against efflux-deficient Pseudomonas aeruginosa PAO750 assessed as inhibition of bacterial growth incubated for 18 hrs. The format is functional.
Data set [16] concerns Escherichia coli. Kind of data set: Antibacterial activity against Escherichia coli ATCC BAA-2469 expressing NDM-1 assessed as inhibition of bacterial growth incubated for 18 hrs. The format is functional.
A further data set concerns Citrobacter freundii. Kind of data set: Antibacterial activity against Citrobacter freundii ATCC 8090 assessed as inhibition of bacterial growth incubated for 18 hrs. The format is functional.
The test system of data set [17] is Klebsiella pneumoniae. Kind of data set: Antibacterial activity against Klebsiella pneumoniae ATCC BAA-2470 expressing NDM-1 assessed as inhibition of bacterial growth incubated for 18 hrs. The format is functional.
The test system of another data set is Morganella morganii. In words: Antibacterial activity against Morganella morganii ATCC 25830 assessed as inhibition of bacterial growth incubated for 18 hrs. The format is functional.
Data set [18] deals with Klebsiella pneumoniae. Kind of data set: Antibacterial activity against Klebsiella pneumoniae panel (100 strains) assessed as inhibition of bacterial growth. The format is functional.
A further data set relates to Klebsiella aerogenes. In words: Antibacterial activity against Enterobacter aerogenes ATCC 13048 assessed as inhibition of bacterial growth incubated for 18 hrs. The format is functional.
The subject of data set [19] is Escherichia coli. Kind of data set: Antibacterial activity against colistin resistant Escherichia coli NCTC 13846 harboring mcr-1 gene assessed as inhibition of bacterial growth incubated for 18 hrs. The format is functional.
The next data set concerns Enterobacter cloacae. In words: Antibacterial activity against Enterobacter cloacae ATCC 23355 assessed as inhibition of bacterial growth incubated for 18 hrs. The format is functional.
The subject of the next data set is Proteus mirabilis. In words: Antibacterial activity against Proteus mirabilis ATCC 25933 assessed as inhibition of bacterial growth incubated for 18 hrs. The format is functional.
Data set [20] concerns Escherichia coli. In words: Antibacterial activity against Escherichia coli Swiss 9 harboring mcr-1 gene assessed as inhibition of bacterial growth incubated for 18 hrs. The format is functional.
For data set [21], the system named is Escherichia coli. In words: Antibacterial activity against Escherichia coli Swiss 7 harboring mcr-1 gene assessed as inhibition of bacterial growth incubated for 18 hrs. The format is functional.
Data set [22] has as its system Staphylococcus aureus. In words: Antibacterial activity against wild type Staphylococcus aureus USA300 assessed as inhibition of bacterial growth incubated for 18 hrs. The format is functional.
Data set [23] deals with Escherichia coli. Kind of data set: Antibacterial activity against Escherichia coli panel (100 strains) assessed as inhibition of bacterial growth. The format is functional.
For a further data set, the system named is Salmonella typhimurium. Kind of data set: Antibacterial activity against Salmonella typhimurium ATCC 13311 assessed as inhibition of bacterial growth incubated for 18 hrs. The format is functional. The note with it: Salmonella enterica subsp. enterica serovar Typhimurium.
The test system of a further data set is Providencia stuartii. In words: Antibacterial activity against Providencia stuartii ATCC 25826 assessed as inhibition of bacterial growth incubated for 18 hrs. The format is functional.

A word on the Kd: it is the equilibrium constant for the complex coming apart. The term IC50 denotes the concentration at which inhibition is half-maximal. For the compound `CC[C@@H](C)[C@@H](NC(=O)[C@@H](NC(=O)[C@H](CCC(=O)O)NC(=O)[C@H](Cc1ccccc1)NC(=O)[C@@H](CCN)NC(=O)[C@H](CCN)NC(=O)[C@H](CO)NC(=O)[C@@H](Cc1c[nH]c2ccccc12)NC(=O)[C@@H](CO)NC(=O)CNC(=O)[C@@H](CCN)NC(=O)[C@H](N)C(C)C)C(C)C)C(=O)N[C@@H](C)C(N)=O`, the results for the Kd (with Lipopolysaccharide (LPS); in data set [3]) were 11.4 µM and 0.58 µM, respectively. Besides, the MIC in the data set on Escherichia coli [1] stood at 16 µg/mL (≈ 11.5 µM); with Klebsiella pneumoniae [4], 64 µg/mL (≈ 45.9 µM). Also, the half-maximal inhibitory concentration (IC50) at 40 h in data set [2] was > 170 µg/mL. Further, the hemolysis at 0.75 h, 400 ug/ml in [5] is 0.4%.

As for `CC[C@H](C)[C@@H](NC(=O)[C@@H](NC(=O)[C@H](CCC(=O)O)NC(=O)[C@H](Cc1ccccc1)NC(=O)[C@@H](CCN)NC(=O)[C@H](CCN)NC(=O)[C@H](CO)NC(=O)[C@@H](Cc1c[nH]c2ccccc12)NC(=O)[C@@H](CO)NC(=O)CNC(=O)[C@@H](CCN)NC(=O)[C@H](N)C(C)C)C(C)(C)C)C(=O)N[C@@H](C)C(N)=O`, in the data set with Lipopolysaccharide (LPS), the Kd stood at 16.7 µM. In addition, the result in the data set on Bacteria was inactive. Also, the MIC with Klebsiella pneumoniae [6] is 4 µg/mL; in the data set on Escherichia coli [1] it was 4 µg/mL (≈ 2.84 µM); in the data set on Pseudomonas aeruginosa [9], 16 µg/mL (≈ 11.4 µM); with Escherichia coli [10], 0.25 µg/mL (≈ 0.178 µM); with Acinetobacter baumannii, > 64 µg/mL; in the data set on Klebsiella pneumoniae [4] it was 2 µg/mL (≈ 1.42 µM). Also, the MIC in the data set with Escherichia coli [11] is 2 µg/mL; in the data set on Escherichia coli [12], 0.125 µg/mL (≈ 0.0888 µM); with Staphylococcus aureus [13], > 64 µg/mL. The “MeCN percentage at peak elution” value in [7] is listed as 41%. The “fold change (FC)” value in the data set on Escherichia coli [8] is recorded as 2. For the same compound, the IC50 at 40 h in [2] worked out at 93 µg/mL (≈ 66.1 µM). The hemolysis at 0.75 h, 400 ug/ml in data set [5] amounted to 2.6%.

In the case of `CC[C@H](C)[C@@H](NC(=O)[C@@H](NC(=O)[C@H](CCC(=O)O)NC(=O)[C@H](Cc1ccccc1)NC(=O)[C@@H](CCN)NC(=O)[C@H](CCN)NC(=O)[C@H](CO)NC(=O)[C@@H](Cc1c[nH]c2ccccc12)NC(=O)[C@@H](CO)NC(=O)CNC(=O)[C@@H](CCN)NC(=O)[C@H](NC(=O)[C@H](C)N)C(C)C)C(C)(C)C)C(=O)N[C@@H](C)C(N)=O`, the MIC with Klebsiella pneumoniae [6] is 0.125 µg/mL; with Escherichia coli [1], 16 µg/mL (≈ 10.8 µM); with Pseudomonas aeruginosa [9], > 64 µg/mL; in the data set on Escherichia coli [10], 0.5 µg/mL (≈ 0.338 µM); with Acinetobacter baumannii it was 64 µg/mL (≈ 43.3 µM); in the data set with Klebsiella pneumoniae [4] it was 8 µg/mL (≈ 5.41 µM). In addition, the MIC was 2 µg/mL in the data set with Escherichia coli [11], > 64 µg/mL in the data set with Escherichia coli [12] and > 64 µg/mL in the data set with Staphylococcus aureus [13]. Besides, in [7], the “MeCN percentage at peak elution” value was 41.8%. The “fold change (FC)” value with Escherichia coli [8] is recorded as 8. For the same compound, the IC50 at 40 h in [2] is > 170 µg/mL. In [3], the equilibrium dissociation constant (Kd) was 2.15 µM. Moreover, the hemolysis at 0.75 h, 400 ug/ml in data set [5] turned out to be 6%.

As usually defined, the MIC50 is the lowest concentration that inhibits either 50% of growth or 50% of the strains tested, depending on the study. A word on the MIC90: it is an inhibitory concentration at the 90% level, which refers to growth in some studies and to a panel of isolates in others. Regarding COLISTIN, the MIC100 in the data set on Klebsiella pneumoniae [14] is 1 µg/mL; with Serratia marcescens it was > 32 µg/mL; in the data set with Pseudomonas aeruginosa [15], 2 µg/mL; with Escherichia coli [16], 2 µg/mL; in the data set on Citrobacter freundii it was 2 µg/mL; with Klebsiella pneumoniae [17], 4 µg/mL. The MIC100 in the data set with Morganella morganii was > 32 µg/mL; in the data set on Klebsiella aerogenes it was 2 µg/mL; with Escherichia coli [1] it was 0.5 µg/mL; in the data set on Escherichia coli [19] it was 8 µg/mL; in the data set with Enterobacter cloacae it was 2 µg/mL; in the data set with Proteus mirabilis, > 32 µg/mL. Further, the MIC100 in the data set with Klebsiella pneumoniae [4] was 2 µg/mL; in the data set with Escherichia coli [20] it was 8 µg/mL; in the data set with Escherichia coli [21], 8 µg/mL; in the data set on Staphylococcus aureus [22] it was > 32 µg/mL; with Salmonella typhimurium it was 2 µg/mL; in the data set on Providencia stuartii, > 32 µg/mL. In addition, the MIC50 in the data set with Klebsiella pneumoniae [18] was 0.5 µg/mL; in the data set on Escherichia coli [23], < 0.125 µg/mL. For the same compound, the MIC90 in the data set with Klebsiella pneumoniae [18] was > 16 µg/mL; in the data set on Escherichia coli [23] it was 4 µg/mL.

Take `CC[C@H](C)[C@@H](NC(=O)[C@@H](NC(=O)[C@H](CCC(=O)O)NC(=O)[C@H](Cc1ccccc1)NC(=O)[C@@H](CCN)NC(=O)[C@H](CCN)NC(=O)[C@H](CO)NC(=O)[C@@H](Cc1c[nH]c2ccccc12)NC(=O)[C@@H](CO)NC(=O)CNC(=O)[C@@H](CCN)NC(=O)[C@H](NC(=O)[C@@H]1CCCN1)C(C)C)C(C)C)C(=O)N[C@@H](C)C(=O)O`: the MIC with Klebsiella pneumoniae [6] was 1 µg/mL; with Escherichia coli [1], 4 µg/mL (≈ 2.68 µM); with Pseudomonas aeruginosa [9] it was > 64 µg/mL; with Escherichia coli [10], 2 µg/mL (≈ 1.34 µM); with Acinetobacter baumannii, 64 µg/mL (≈ 42.9 µM); in the data set on Klebsiella pneumoniae [4] it was 4 µg/mL (≈ 2.68 µM). In addition, the MIC with Escherichia coli [11] is 1 µg/mL; with Escherichia coli [12], 2 µg/mL (≈ 1.34 µM); with Staphylococcus aureus [13], > 64 µg/mL. Moreover, in data set [7], the “MeCN percentage at peak elution” value is listed as 41.9%. In addition, the “fold change (FC)” value with Escherichia coli [8] is reported as 2. In data set [2], this compound gave an IC50 at 40 h of 109 µg/mL (≈ 73.1 µM). In addition, the hemolysis at 0.75 h, 400 ug/ml in [5] came out at 5.5%.
